Source: US6649615B2, “Method for inhibiting fibrogenesis” (Institute National de la Sante et de la Recherche Medicale …, priority 2002, dated 2003)
“And” between values parts separate entries of the source, which are not always exact repeats. Identical values can stand only once. “Also recorded” adds a separate entry of the source.

What was measured:
[1] = test system: CCl4-induced liver fibrosis; experiment: CCl4-induced liver fibrosis in rats, fibrosis area by Picro Sirius red image analysis; assay type: in vivo, rat; conditions: for area of fibrosis (% of field area): control 0.63±0.06%
Procedure: (§1) All experiments were carried out using accepted ethical guidelines. Male Wistar rats (Charles River, St Aubin-les-Elbeuf, France) weighing 200-250 g were used in this study. The animals had free access to food and drinking water. Fibrosis was induced by giving CCl4 (Sigma, St Quentin-Fallavier, France) mixed with olive oil (1vol: 5vol.) at 0.375 ml/kg body weight by gavage, three times a week, on Monday, Wednesday and Friday. Control animals for CCl4 received only olive oil.
(§2) Sympathetic chemical denervation was performed with OHDA (Sigma). OHDA was freshly prepared in saline containing 0.4% (w/v) ascorbic acid (Sigma). OHDA was administered intraperitoneally, twice a week on 2 consecutive days (Monday and Tuesday) at the dose of 25 mg/kg body weight. The first injection was given 4 to 6 hours before the first administration of CCl4. Control animals for OHDA received only the solvent.
(§3) Thus, 4 groups including each 6 animals could be distinguished. Group I: olive oil and saline alone; group II: olive oil and OHDA alone; group III: CCl4 with saline; group IV: CCl4 with OHDA. These animals were treated for 2 weeks. In another series of experiments, animals were similarly treated for 6 weeks. In that case, both control groups included only 3 animals.
Finally, other animals were treated with the specific α1-adrenergic receptor antagonist prazosin (Sigma), given in drinking water daily at a dose of 50 mg/l during 2 weeks. Group V animals received CCl4 alone, while group VI received CCl4 with prazosin. Both groups included 6 animals.
At the designated time points, the animals were sacrificed. Liver samples were taken from several lobes and either snap frozen in liquid nitrogen, cryopreserved in OCT compound (Sakura, Torrance, Calif.) and snap-frozen in liquid nitrogen-cooled isopentane, or fixed in buffered formalin.
This was done on formalin-fixed, paraffin-embedded sections stained with Picro Sirius red, using image analysis. All samples from a series of experiments were stained simultaneously. Quantitative data were obtained using a computerized image analysis system (Biocom 500, Les Ulis, France) including a personal computer (DESK PRO, Compaq, Houston, Tex.), a CCD video camera (Sony, Japan) and a Zeiss microscope (Jena, Germany). Sampling corresponded to 3 sections from 3 different lobes. The analysis was performed on an average of 50 fields per section using the ×4 objective. The whole surface of the sections was used for analysis with the exception of large centrolobular veins (diameter ≧150 μm) and large portal tracts. Fibrosis deposition was expressed as a percentage of stained areas on the total measured area.
Interassay variation was calculated in preliminary experiments and found to be 1.4%. When the percentage of reduction in areas of fibrosis consecutive to treatments was calculated, control values were first substracted.

[2] = test system: liver norepinephrin stores; experiment: Liver catecholamine (norepinephrin) content by HPLC with electrochemical detection; assay type: in vivo, rat; conditions: for Norepinephrin content in liver: 2 weeks, mean ± 1 SD; for decrease in the liver norepinephrin content: OHDA 2 weeks
Procedure: as §2, §3
Extraction was performed on liver homogenates (10% w/v, in 0.05 M ice-cold Tris-HCl buffer at pH 7.4) according to the method of Smedes et al. using […] as internal standard (Smedes et al., 1982). Extracts were analyzed by HPLC with electrochemical detection.

[3] = Vital parameters and liver function tests after 2 weeks of treatment; assay type: in vivo, rat; conditions: for Bilirubin / ALAT / ASAT / Alkaline phosphatase / LW/BW ratio (X100) / Liver weight / Body weight: 2 weeks; for Bilirubin / ALAT / ASAT / Alkaline phosphatase: serum
Procedure: as §1, §2, §3
Serum samples were also collected.

[4] = test system: type I collagen mRNA; experiment: Liver type I collagen transcripts (quantitative RT-PCR, in situ hybridization); assay type: in vivo, rat; conditions: 6 weeks
Procedure: In situ hybridization was performed on frozen sections according to a protocol described earlier, using [α^33P]UTP labeled riboprobes (Faouzi et al., 1999). The probe used was a 900 bp fragment of the rat α2(I) collagen cDNA, (Genovese et aL, 1984). The cDNA was subcloned into the pGEM5Z f(+) vector. Antisense and sense probes were generated by in vitro transcription. Their size was reduced to ˜250 nt by alkaline hydrolysis.
Total RNA was prepared from liver samples by the method of Chomczynski and Sacchi (1987), modified as described by Puissant and Houdebine (1990).
Type I collagen specific transcripts were quantified by a technique of quantitative RT-PCR, that has previously been described in detail (Bieche et al., 2000). Each sample was normalized on the basis of its expression of the RPLPO gene (also known as 36B4, encoding human acidic ribosomal phosphoprotein P0).

[5] = test system: TIMP-1 mRNA; experiment: Liver TIMP-1 mRNA by Northern blot (TIMP-1/GAPDH ratio); assay type: in vivo, rat
Procedure: […] The blot was then stripped and rehybridized with a rat GAPDH (glyceraldehyde-3-phosphate dehydrogenase) probe.
[…] of total RNA extracted from rat liver was analyzed by Northern blot. RNAs were separated on a 0.8% agarose gel containing ethidium bromide in MOPS buffer. Running buffer and gel contained 0.2 M formaldehyde. The RNAs were transferred onto a positively charged nylon membrane (Amersham, Orsay, France) by downward capillary transfer in running buffer. Examination of the stained membrane under UV light was used to confirm the quality of loading and transfer. A rat TIMP-1 cDNA probe was labeled with [α^32P]dCTP by random priming using the Ready-to-go kit from Roche (Meylan, France). Hybridization was performed using the Ultrahyb solution (Ambion, Austin, Tex.). The blots were washed in stringent conditions (0.1×SSC, 0.1% SDS at 65° C.). To further confirm the loading and transfer accuracy, blots were rehybridized with a rat GAPDH cDNA probe (Fort et al., 1985). The signals were quantified with the Kodak 1 D Image Analysis Software (Eastman Kodak Company, Rochester, N.Y.). Results are presented as TIMP-1/GAPDH ratios.

[6] = test system: CCl4-induced hepatocyte necrosis; experiment: Acute toxicity of CCl4: liver function tests and area of necrosis
Procedure: Routine liver function blood tests (bilirubin, alkaline phosphatase and transaminases) were performed on an automated analyzer.
Thus, groups of animals treated with 2 administrations of CCl4 with or without 2 injections of OHDA were sacrificed 24 hours after the second CCl4 treatment and evaluated for acute toxicity of CCl4 by serum tests and measurement of the area of necrosis on liver sections.
The percentage of necrosis area was determined on hematoxylin and eosin stained sections by image analysis.

NCCc1cc(O)c(O)cc1O [OHDA, 6-hydroxydopamine]
area of fibrosis (% of field area) ([1]; CCl4 with OHDA (group IV), 2 weeks, CCl4 alone 2.86±0.78%): 1.54±0.29% | area of fibrosis ([1]; CCl4 with OHDA, 6 weeks, CCl4 alone 18.82±1.79%): 12.38±1.89% | area of fibrosis (% of field area) ([1]; OHDA alone (group II), 2 weeks): 0.61±0.08% | area of fibrosis ([1]; OHDA alone, 6 weeks): 0.47±0.03% | reduction in the area of fibrosis ([1]; OHDA with CCl4 vs CCl4 alone, 2 weeks, control values subtracted): 60% and 60.2% | decrease of fibrosis area ([1]; OHDA with CCl4 vs CCl4 alone, 6 weeks): 36% | Norepinephrin content in liver ([2]; CCl4 + OHDA (group IV), CCl4 alone group III 29.1 ± 10.6): 3.6 ± 1.5 ng/g of wet liver tissue | decrease in the liver norepinephrin content ([2]; CCl4-treated animals): 87.6% | Norepinephrin content in liver ([2]; OHDA alone (group II), 25 mg/kg i.p. twice a week, saline group I 47.6 ± 9.9): 6.0 ± 3.2 ng/g of wet liver tissue | decrease in the liver norepinephrin content ([2]; non CCl4-treated animals): 87.4% | Bilirubin ([3]; CCl4 with OHDA (group IV), CCl4 alone 3.2 ± 0.7): 5.0 ± 1.4 μM.I^−1 | ALAT ([3]; CCl4 with OHDA (group IV), CCl4 alone 130 ± 98): 97 ± 37 IU.I^−1 | ASAT ([3]; CCl4 with OHDA (group IV), CCl4 alone 173 ± 82): 137 ± 29 IU.I^−1 | Alkaline phosphatase ([3]; CCl4 with OHDA (group IV), CCl4 alone 276 ± 53): 225 ± 58 IU.I^−1 | LW/BW ratio (X100) ([3]; CCl4 with OHDA (group IV), CCl4 alone 4.6 ± 0.7): 4.1 ± 0.6 | Liver weight ([3]; CCl4 with OHDA (group IV), CCl4 alone 13.7 ± 1.7): 12.5 ± 1.0 g | Body weight ([3]; CCl4 with OHDA (group IV), CCl4 alone 298 ± 12): 293 ± 6 g | gross toxic effects of prolonged treatment ([3]; OHDA alone (group II)): No gross toxic effects | histologic aspect of the livers ([3]; OHDA alone (group II)): strictly normal | Bilirubin ([3]; OHDA alone (group II), saline 4.5 ± 1.4): 2.3 ± 0.5 μM.I^−1 | ALAT ([3]; OHDA alone (group II), saline 43 ± 4): 50 ± 6 IU.I^−1 | ASAT ([3]; OHDA alone (group II), saline 120 ± 9): 94 ± 18 IU.I^−1 | Alkaline phosphatase ([3]; OHDA alone (group II), saline 178 ± 48): 274 ± 46 IU.I^−1 | LW/BW ratio (X100) ([3]; OHDA alone (group II), saline 3.7 ± 0.2): 4.4 ± 0.2 | Liver weight ([3]; OHDA alone (group II), saline 12.9 ± 1.0): 16.0 ± 1.1 g | Body weight ([3]; OHDA alone (group II), saline 344 ± 17): 365 ± 14 g | type I collagen mRNA level (quantitative RT-PCR) ([4]; CCl4 together with OHDA, CCl4 alone 477.2±91.0, control 16.0±5.9): 364.5±68.7 arbitrary units | decrease in type I collagen mRNA level ([4]; CCl4 with OHDA vs CCl4 only): 24% | effect on CCl4-induced increase of liver TIMP-1 mRNA (TIMP-1/GAPDH ratio) ([5]; CCl4 with OHDA (group IV), 2 weeks): abrogated; also recorded: normalization of the TIMP-1/GAPDH ratio back to control values | effect on CCl4-induced increase of liver TIMP-1 mRNA ([5]; CCl4 with OHDA, 6 weeks): greatly reduced | reduction in the TIMP-1/GAPDH ratio ([5]; CCl4 with OHDA, 6 weeks, all animals, not statistically significant): 45% | reduction in the TIMP-1/GAPDH ratio ([5]; CCl4 with OHDA, 6 weeks, one animal with very high value removed, p=0.05): 57% | Necrosis area ([6]; CCl4 + OHDA, 96 hs, hematoxylin and eosin sections, CCl4 alone 4.6 ± 2.3): 3.3 ± 1.0% | ALAT ([6]; CCl4 + OHDA, 96 hs, CCl4 alone 269 ± 117): 221 ± 71 IU.I^−1 | Alkaline phosphatase ([6]; CCl4 + OHDA, 96 hs, CCl4 alone 314 ± 111): 240 ± 117 IU.I^−1 | ASAT ([6]; CCl4 + OHDA, 96 hs, CCl4 alone 452 ± 152): 342 ± 62 IU.I^−1 | effect on the acute toxicity of CCl4 (biological tests and necrosis area) ([6]; co-treatment with CCl4 vs CCl4 alone): no statistically significant difference
